What was measured:
p38β MAP kinase = target: T1, p38β MAP kinase (Homo sapiens, UniProt Q15759); assay: Inhibition of p38β MAP kinase enzyme activity; assay type: biochemical; settings: 20 μM ATP
T1 construct: purchased Upstate Biotechnology/Millipore
Procedure: The kinase reaction buffer is prepared essentially as described above. The substrate mix is prepared by combining the following: 2840 μL Kinase Reaction Buffer, 15.0 μL ATP at 10 mM, 125 μL EGFR peptide at 4 mM (9.174 mg/ml), 18.75 μL ^33P-ATP. The p38β MAP kinase enzyme stock solution is prepared by diluting 2.25 μL of a 0.57 mg/mL solution of commercial p38β MAP kinase (Upstate Biotechnology/Millipore) in 2000 μL of reaction buffer. Stock solutions of test compounds are generated essentially as described above.
The kinase assay is performed essentially as described for p38α MAP kinase. Final reaction conditions are as follows: 25 mM HEPES pH 7.5, 4.25 mM MgCl2, 1.30 mM DTT, 0.004% TRITON® X-100, 20 μM ATP, 65 μM EGFR peptide, 0.25 ng/μL p38β MAP kinase, 4% DMSO. […] For example, Example 1 has an IC50=0.007 μM.

p38 MAP kinase = assay: In vivo inhibition of p38 MAP kinase in U87MG tumor-bearing mice (p-MAPKAPK2 in tumor lysates); parameters: species or system athymic nude mice; settings: oral, 2 hours after dosing
Procedure: A murine xenograft model utilizing the human tumor cell line, U87MG, is used for assessment of inhibition of p38 MAP kinase in tumors
Female athymic nude mice (24-26 g, Harlan) are injected subcutaneously in the rear flank with 5×10^6 U87MG cells per animal Cells are injected in a 0.2 mL volume with a 1:1 mixture of cell culture media and BD […]™ matrix. 7 days after implant tumors are measured using a caliper and the data recorded. Tumors are measured twice weekly thereafter and the tumor size is recorded. When tumors reach an average volume of approximately 250 mm^3 (usually 10-15 days after implant), animals are randomized into groups of 8-10 for treatment. Animals are then dosed orally with 0.2 mL vehicle (1% HEC, 0.25% TWEEN® 80, 0.05% antifoam) alone or vehicle containing test compound. 2 Hours after dosing, animals are euthanized. […]
p-MAPKAPK2 levels in the tumor lysates are determined using a Mesoscale Discovery (MSD) capture ELISA kit (2 Phospho-MAPKAPK-2 (Thr334)). The concentration of protein in the lysates is determined using a BioRad DC protein assay kit (BioRad). […] Following incubation with the detection antibody, the MSD plate is washed followed by addition of MSD read buffer. After passage of current over the electrode, electro-chemiluminescence results in the generation of light that is quantified using the MSD Sector 6000 instrument. […]

T1 sequence (Q15759 whole entry): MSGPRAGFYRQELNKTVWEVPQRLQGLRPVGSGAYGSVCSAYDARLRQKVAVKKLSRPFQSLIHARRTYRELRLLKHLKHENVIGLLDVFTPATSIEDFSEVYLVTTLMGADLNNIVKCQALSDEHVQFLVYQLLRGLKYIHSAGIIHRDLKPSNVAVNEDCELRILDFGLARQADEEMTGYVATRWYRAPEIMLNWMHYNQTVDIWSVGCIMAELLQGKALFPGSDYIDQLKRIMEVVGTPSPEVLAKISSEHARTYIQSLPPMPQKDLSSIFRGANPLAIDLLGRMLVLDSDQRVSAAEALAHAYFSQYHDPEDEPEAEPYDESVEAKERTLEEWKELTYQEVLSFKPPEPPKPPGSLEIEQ

IC50 (p38β MAP kinase): 7 nM
Compound: COCC[C@H](C)Nc1nc2ccc(-c3nc(C(C)(C)CO)[nH]c3-c3ccc(F)cc3F)nc2o1 [Example 1, 2-[5-(2,4-Difluorophenyl)-4-[2-[[(1S)-3-methoxy-1-methyl-propyl]amino]oxazolo[5,4-b]pyridin-5-yl]-1H-imidazol-2-yl]-2-methyl-propan-1-ol]
TED70 for p38 MAP kinase target inhibition in tumors (p38 MAP kinase): 2.9 mg/kg | TEC70 (p38 MAP kinase; U87MG tumors): 31.3 ng/mL

Reference: US8288548B2, “Oxazolo[5-4-b]pyridin-5-yl compounds” (Eli Lilly and Company, priority 2010, dated 2012)
